Inhibition in vivo, oral absorption and IC50 data for nine compounds are collected here from US6093714A, “Tricyclic benzazepine compounds” (priority 1995, dated 2000).

Data set [1] concerns allergic foot-pad edema reaction. The experiment in a line: Immediate and late phase allergic response inhibition test (allergic foot-pad edema reaction). As to conditions: Rattus norvegicus; for inhibition in vivo at 20 mg/kg: po, 20 mg/kg orally, 10 min before induction. It counts as in vivo, Wister male rats. As for the experimental part: Immediate and late phase allergic response inhibition test
Wister male rats weighing of 200 g were provided. 1010 organisms of Bordetella pertussis and 1 mg of dinitrophenylated ovalbumin (hereinafter abbreviated to "DNP-OA") were intramuscularly administered into the foot pad of the limbs of the rats except for the right hind leg. Further, ten days after the administration, 5 pg/site DNP-OA was subcutaneously administered to the right hind leg to induce allergic foot-pad edema reaction. The inhibitory activity of the test compounds was determined in such a manner that the volume of edema 30 min after the induction of the allergic reaction was regarded as an immediate phase allergic response and the volume of edema 8 hr after the induction of the allergic reaction was regarded as a late phase allergic response. Each test compound was dissolved or suspended in a 0.25% Tween 80 solution, and the solution or suspension was orally administered at a dose of 20 mg/kg 10 min before the induction of the allergic reaction.
Only the 0.25% Tween 80 solution was administered to the control group of rats not treated with any test compound, and 100 mg/kg sodium cromoglicate was subcutaneously or orally administered to the positive control group of rats.
The percentage inhibition of the allergic foot-pad edema reaction was determined by the following equation.
Percentage inhibition of allergic foot-pad edema reaction=(A-B)/A×100
wherein A: average edema volume for the non-treated control group of rats; and
B: average edema volume for the group of rats with the test compound administered.

For data set [2] the following is noted: cited from earlier work.
The next data set concerns intraperitoneal cells. As to the kind of experiment: Histamine release reaction inhibition test (rat intraperitoneal cells, DNP-As antigen). The class given is cell-based, Wistar male rat. As to conditions: 10^-5 to 10^-10 M test compound, DNP-As stimulated intraperitoneal cells, 10^5 cells/ml, read-out: IC50 (dose of the test compound required for inhibiting the histamine release reaction by 50%). As for the experimental part: Histamine release reaction inhibition test
(1) Preparation of antiserum
Rat anti-dinitrophenylated ascaris protein (hereinafter referred to as "DNP-As") serum was prepared according to the method established by Tada et al. (Tada, T. and Okumura, K., J. Immun. 106(4), 1971). Specifically, 1010 organisms of Bordetella pertussis and 1 mg of DNP-As were intramuscularly administered to the foot pad of the limbs of Brown norway male rats weighing 200 g, and, five days after the administration, 0.5 mg of DNP-As was intramuscularly administered to the back. Three days after that, blood was collected to prepare an antiserum. The titer of the antiserum was determined by using a 48-hr passive cutaneous anaphylaxis reaction using a rat and found to be 1:1000 to 1:2000.
(2) Induction of histamine release reaction and release reaction inhibitory activity
The above serum was diluted four times with physiological brine, and 1 ml of the diluted serum was intraperitoneally administered to a Wistar male rat. Two days after the administration, the abdominal cavity was washed with phosphate buffer, and intraperitoneal cells were collected. The cells were adjusted to 10^5 cells/ml and stimulated with 1 pg/ml DNP-As, and the amount of the histamine released on the supernatant was measured by the method established by Shore et al (Shore, P. A., Burkhalter, A. H. and Chon Jr. V. H. J. Pharm. Exp. Ther., 127 , 182-186 (1959)).
The amount of the released histamine treated with 10^-5 to 10^-10 M test compound was compared with that of non-treated group. The dose of the test compound required for inhibiting the histamine release reaction by 50% (IC50) was calculated based on the percentage inhibition. IC50 of sodium cromoglicate was used as a control.

Setting [3] is: 0.5 h, edema 30 min after induction, read-out: Inhibition (%) Immediate phase response.
Where [4] appears, read: edema 8 hr after induction, read-out: Inhibition (%) Late phase response.

Structures can show the parent of a compound that is named as a salt. Where two headings read alike, the source gives them in different places.

In the case of `O=C(O)c1cc(=O)c2c(OCC(O)COc3cccc4oc(C(=O)O)cc(=O)c34)cccc2o1` [Sodium cromoglicate, reference compound], the inhibition in vivo at 100 mg/kg turned out to be 16% in data set [1] (0.5 h, oral administration, edema 30 min after induction, read-out: Inhibition (%) Immediate phase response); 75% in data set [1] (sc, 0.5 h, subcutaneous administration, edema 30 min after induction, read-out: Inhibition (%) Immediate phase response); 53% in data set [1] (sc, subcutaneous administration, edema 8 hr after induction, read-out: Inhibition (%) Late phase response); 20% in data set [1] (oral administration, edema 8 hr after induction, read-out: Inhibition (%) Late phase response). The oral absorption entry in data set [2] was “poor oral absorption”. Besides, the IC50 in the data set with intraperitoneal cells turned out to be 1800 nM.
`O=C(CCc1ccc2c(=O)c3[nH]nnc3c(=O)[nH]c2c1)N(Cc1ccccn1)Cc1ccccn1` [Example 5, 4(5H ),10-Dioxo-7-(2-(N,N-bis(2-pyridylmethyl))carbamoyl)ethyl-1H-1,2,3-triazolo[4,5-c][1]benzazepine]: the results for the inhibition in vivo at 20 mg/kg in data set [1] (setting [3]) and in data set [1] (setting [4]) were 40% and 43%, respectively. For the same compound, the IC50 in the data set with intraperitoneal cells is 2.9 nM.
For `CN1CCN(C(=O)CCc2ccc3c(=O)c4[nH]nnc4c(=O)[nH]c3c2)CC1` [Example 8, 7-(2-(4-Methylpiperazin-1-yl)carbonylethyl)-4(5H),10-dioxo-1H-1,2,3-triazolo[4,5-c][1]benzazepine] the same measures were 42%, 20% and 9.5 nM.
In the same order, the values of `CN1CCN(CCCOc2ccc3c(=O)c4[nH]nnc4c(=O)[nH]c3c2)CC1` [Example 13, 7-(3-(4-Methyl-1-piperazino)propoxy)-4(5H),10-dioxo-1H-1,2,3-triazolo[4,5-c][1]benzazepine ditrifluoroacetate] are 28%, 28% and 11 nM.
For `O=c1[nH]c2cc(/C=C/c3ccncc3)ccc2c(=O)c2[nH]nnc12` [Example 10, 4(5H),10-Dioxo-7-(2-(4-pyridyl)-(E)-ethenyl)-1H-1,2,3-triazolo[4,5-c][1]benzazepine trifluoroacetate] the same measures were 44%, 59% and 2.4 nM.
In the case of `O=C(CCc1ccc2c(=O)c3[nH]nnc3c(=O)[nH]c2c1)N1CCc2ccccc2C1` [Example 6, 7-(2-(1,2,3,4-Tetrahydro-2-isoquinolyl)carbonylethyl)-4(5H),10-dioxo-1H-1,2,3-triazolo[4,5-c][1]benzazepine], the figures for the inhibition in vivo at 20 mg/kg in data set [1] (setting [3]) and in data set [1] (setting [4]) were 19% and 29%, respectively. Moreover, the IC50 in the data set with intraperitoneal cells is 4.5 nM.
In the same order, the values of `Cc1cccc(/C=C/c2ccc3c(=O)c4[nH]nnc4c(=O)[nH]c3c2)n1` [Example 32, (E)-7-(2-(6-Methyl-2-pyridyl)-(E)-ethenyl)-4(5H),10-dioxo-1H-1,2,3-triazolo[4,5-c][1]benzazepine trifluoroacetate] are 55%, 43% and 1.2 nM.
For `CCN(Cc1ccccn1)C(=O)COc1ccc2c(=O)c3[nH]nnc3c(=O)[nH]c2c1` [Example 15, 7-(N-Ethyl-N-(2-pyridylmethyl)carbamoylmethyloxy)-4(5H),10-dioxo-1H-1,2,3-triazolo[4,5-c][1]benzazepine trifluoroacetate] the same measures were 34%, 25% and 9.9 nM.
For `O=C(COc1ccc2c(=O)c3[nH]nnc3c(=O)[nH]c2c1)N(Cc1ccccn1)Cc1ccccn1` [Example 18, 7-(N,N-Bis(2-pyridylmethyl)carbamoylmethyloxy)-4(5H),10-dioxo-1H-1,2,3-triazolo[4,5-c][1]benzazepine ditrifluoroacetate] the same measures were 40%, 5% and 6.2 nM.

As usually defined, the IC50 is the concentration at which inhibition is half-maximal.
